Laboratory results taken from publication PMC10641717 (Journal of medicinal chemistry, 2023).
Values belong to the molecule of their own block, whether it stands above or below them.

Experiments:
BRD9 = molecular target: T1, BRD9 (Homo sapiens, UniProt Q9H8M2); assay: Cell fractionation assay, BRD9 bound to chromatin; assay type: cell-based; conditions: HEK293T, 10 μM, 24 h
T1 sequence (Q9H8M2 1-597): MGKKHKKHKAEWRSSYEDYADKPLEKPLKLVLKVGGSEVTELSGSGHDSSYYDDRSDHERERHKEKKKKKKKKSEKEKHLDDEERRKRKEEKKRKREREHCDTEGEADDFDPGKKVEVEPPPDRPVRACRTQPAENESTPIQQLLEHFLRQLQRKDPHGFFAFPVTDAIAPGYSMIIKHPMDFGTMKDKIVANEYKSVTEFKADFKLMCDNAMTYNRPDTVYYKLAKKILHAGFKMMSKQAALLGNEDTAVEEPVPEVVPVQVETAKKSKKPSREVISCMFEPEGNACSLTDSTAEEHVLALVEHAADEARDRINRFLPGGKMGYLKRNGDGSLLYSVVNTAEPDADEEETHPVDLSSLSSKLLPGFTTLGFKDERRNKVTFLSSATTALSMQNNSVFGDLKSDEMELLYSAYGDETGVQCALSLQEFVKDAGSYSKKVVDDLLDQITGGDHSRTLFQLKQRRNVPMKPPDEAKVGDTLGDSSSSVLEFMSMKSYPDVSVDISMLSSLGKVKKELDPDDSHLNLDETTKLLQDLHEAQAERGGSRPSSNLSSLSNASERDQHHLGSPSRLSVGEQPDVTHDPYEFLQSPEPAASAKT

His-tagged BRD7 BD = molecular target: T2, His-tagged BRD7 BD (Homo sapiens, UniProt Q9NPI1); assay: Thermal shift assay; assay type: binding; conditions: compounds at 25, 10, or 1 μM
T2 sequence (Q9NPI1 131-235 limits assumed): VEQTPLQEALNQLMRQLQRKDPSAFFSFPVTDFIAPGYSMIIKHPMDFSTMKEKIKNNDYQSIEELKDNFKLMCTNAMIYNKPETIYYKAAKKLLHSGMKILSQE

LNCaP cells [1] = assay: Growth inhibition, CellTiter-Glo, 4 days; assay type: cell-based, human; conditions: 5, 1, and 0.1 μM
PC-3 cells = assay: Growth inhibition, CellTiter-Glo, 4 days; assay type: cell-based, human; conditions: 5, 1, and 0.1 μM
40 distinct BDs = assay: BROMOscan BromoMAX panel; assay type: binding, human; conditions: for binding to other BDs in BROMOscan: 2 μM, BDs other than BRD7/BRD9; for selectivity in BROMOscan panel: 2 μM concentration
BRD9 BD = molecular target: T3, BRD9 BD (Homo sapiens, UniProt Q9H8M2); assay: Microscale thermophoresis; assay type: binding; conditions: 50 nM His-tagged BRD9, ligand from 50 μM
T3 sequence (Q9H8M2 136-240 limits assumed): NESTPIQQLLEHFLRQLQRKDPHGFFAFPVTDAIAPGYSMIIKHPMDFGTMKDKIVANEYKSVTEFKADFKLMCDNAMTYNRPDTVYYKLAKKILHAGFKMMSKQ

BRPF1B BD [2] = molecular target: T4, BRPF1B BD (Homo sapiens, UniProt P55201); assay: BROMOscan BromoMAX panel; assay type: binding; conditions: 2 μM
T4 sequence (P55201 628-732 limits assumed): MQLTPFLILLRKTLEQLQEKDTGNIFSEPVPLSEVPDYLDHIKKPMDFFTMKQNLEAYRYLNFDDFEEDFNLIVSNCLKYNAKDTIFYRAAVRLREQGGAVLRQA

BRPF1B BD [3] = molecular target: T4, BRPF1B BD; assay: NanoBRET target engagement in HEK293T cells; assay type: cell-based
[4] = system: LNCaP, C4–2 and PC3 cells; assay: Dose curves over 7 days of treatment, CellTiter-Glo; assay type: cell-based, human
22Rv1 cells = assay: On-target activity assessment in 22Rv1 cells with BRD7 knockdown; assay type: cell-based, human; conditions: 2.5 or 5 μM, 4 days, two shRNA constructs
LNCaP cells [5] = assay: RNA-Seq gene expression in LNCaP cells; assay type: cell-based, human; conditions: 1 μM, 72 h
BRD7 BD = molecular target: T5, BRD7 BD (Homo sapiens, UniProt Q9NPI1); assay: NanoBRET target engagement in HEK293T cells
T5 sequence (Q9NPI1 131-235 limits assumed): T2 sequence (Q9NPI1 131-235 limits assumed)

His-tagged BRD9 BD = molecular target: T6, His-tagged BRD9 BD (Homo sapiens, UniProt Q9H8M2); assay: Thermal shift assay; assay type: binding; conditions: compounds at 25, 10, or 1 μM
T6 sequence (Q9H8M2 136-240 limits assumed): T3 sequence (Q9H8M2 136-240 limits assumed)

His-tagged BRPF1B BD = molecular target: T7, His-tagged BRPF1B BD (Homo sapiens, UniProt P55201); assay: Thermal shift assay; assay type: binding; conditions: compounds at 25, 10, or 1 μM
T7 sequence (P55201 628-732 limits assumed): T4 sequence (P55201 628-732 limits assumed)

SMILES: CCn1cc(-c2cccc(C(F)(F)F)c2)c2sc(C(=N)NC3CCS(=O)(=O)CC3)cc2c1=O [I-BRD9]
- BRD9 bound to chromatin after treatment (BRD9): significantly reduced BRD9 from chromatin

SMILES: COc1cc(-c2cn(C)c(=O)c3cnccc23)cc(OC)c1CN(C)C [BI7273, reference compound]
- stabilization / Tm increase of BRD7 BD (TSA) (His-tagged BRD7 BD): binding and stabilization
- LNCaP cell growth (LNCaP cells [1]): little to no effect
- PC-3 cell growth (PC-3 cells): little to no effect

- binding to other BDs in BROMOscan (40 distinct BDs): no binding to other BDs
SMILES: COc1ccc2ccccc2c1-c1ccc2c(C)cc(=O)n(C)c2c1 [2–81, 7-(2-Methoxynaphthalen-1-yl)-1,4-dimethylquinolin-2(1H)-one]

- binding to BRD9 (MST) (BRD9 BD): no binding
- binding to BRPF1B BD in BROMOscan (BRPF1B BD [2]): off-target binding
- IC50 (BRPF1B BD [3]): > 10000 nM
- stabilization / Tm increase of BRD7 BD (TSA) (His-tagged BRD7 BD): increased the Tm
- IC50 (BRD7 BD): 1200 nM
SMILES: COc1ccc(-c2ccc3c(C)cc(=O)n(C)c3c2)c(OC)n1 [2–77, 7-(2,6-Dimethoxypyridin-3-yl)-1,4-dimethylquinolin-2(1H)-one]
- selectivity in BROMOscan panel (40 distinct BDs): showed selectivity for BRD7 over BRD9
- LNCaP cell growth (LNCaP cells [1]): inhibited the cell growth
- PC-3 cell growth (PC-3 cells): active in PC-3 only at the highest concentration
- sensitivity of LNCaP and C4–2 cells relative to PC3 cells [4]: 3−6 times
- viability of 22Rv1 cells with BRD7 knockdown (22Rv1 cells): less affected
- GSEA Hallmark_Androgen_Response enrichment (LNCaP cells [5]): significant and strong negative enrichment

- binding to other BDs in BROMOscan (40 distinct BDs): no binding to other BDs
- stabilization / Tm increase of BRD7 BD (TSA) (His-tagged BRD7 BD): stabilized and increased the Tm
- stabilization / Tm increase of BRD9 BD (TSA) (His-tagged BRD9 BD): stabilized and increased the Tm
SMILES: Cc1cc(C)cc(-c2cn(C)c(=O)c3ccccc23)c1 [1–38, 4-(3,5-Dimethylphenyl)-2-methylisoquinolin-1(2H)-one]

SMILES: COc1ccccc1C(=O)Nc1cc2c(cc1N1CCCCC1)n(C)c(=O)n2C [GSK-5959, reference compound]
- LNCaP cell growth (LNCaP cells [1]): little to no effect
- PC-3 cell growth (PC-3 cells): little to no effect

- stabilization / Tm increase of BRD7 BD (TSA) (His-tagged BRD7 BD): stabilized only BRD9 BD
- stabilization / Tm increase of BRD9 BD (TSA) (His-tagged BRD9 BD): stabilized only BRD9 BD
SMILES: COc1ccc(-c2cn(C)c(=O)c3ccccc23)c(OC)n1 [2–88, 4-(2,6-Dimethoxypyridin-3-yl)-2-methylisoquinolin-1(2H)-one]

- binding to BRD9 (MST) (BRD9 BD): no binding
- binding to BRPF1B BD in BROMOscan (BRPF1B BD [2]): off-target binding
- stabilization / Tm increase of BRD7 BD (TSA) (His-tagged BRD7 BD): increased the Tm
- IC50 (BRD7 BD): 800 nM
SMILES: COc1ccc(-c2ccc3c(C)cc(=O)n(C)c3c2)c(C)n1 [1–78, 7-(6-Methoxy-2-methylpyridin-3-yl)-1,4-dimethylquinolin-2(1H)-one]
- selectivity in BROMOscan panel (40 distinct BDs): showed selectivity for BRD7 over BRD9
- stabilization of BRPF1B BD (TSA) (His-tagged BRPF1B BD): modest stabilization of BRPF1B at the highest concentration (25 μM)
- LNCaP cell growth (LNCaP cells [1]): inhibited the cell growth
- PC-3 cell growth (PC-3 cells): active in PC-3 only at the highest concentration
- sensitivity of LNCaP and C4–2 cells relative to PC3 cells [4]: 3−6 times
- viability of 22Rv1 cells with BRD7 knockdown (22Rv1 cells): not significantly affected
